Tests used:
[1] = system: LPS-induced TNF-α protein production; assay: LPS-induced TNF-α production in primary blood macrophages (ELISA); type: cell-based; details: Homo sapiens, Macrophage, PBMac
Protocol: FIGS. 6A-6B show inhibition of LPS-induced TNF-α production by B22EES1-8-3 and dexamethasone. PBMac were incubated with (A) 140 μM B22EES1-8-3 or (B) 1.3 or 5.1 μM dexamethasone (Dex) for 24 hr prior to the addition of 1 ng/mL and 10 ng/mL LPS for another 24 hr. The culture supernatants were collected and assayed for TNF-α by ELISA. The results shown were the mean values±standard derivation (S.D.) of 6 independent experiments, with cells obtained from different donors. * P<0.05, compared with the corresponding control.
Cell Culture and Primary Blood Macrophage Isolation Human peripheral blood monocytic cells (PBMC) were isolated from the buffy coat of healthy donor blood supplied by Hong Kong Red Cross by Ficoll-Paque (Amersham Pharmacia Biotech, Piscataway, N.J.) density gradient centrifugation as described in our previous reports^36-38. In brief, the buffy coat was spun at 3000 rotations per min (rpm) for 15 min to separate the blood cells and the plasma. The heat inactivated serum was filtered for future use.
The adherent monocytic cells were detached and seeded onto tissue culture plates and incubated for another 7-14 days in order to differentiate the primary blood monocytic cells to primary blood macrophages (PBMac).
Culture supernatants of the LPS-treated PBMac, with or without B22EES1-8-3 pretreatment, were collected at different time intervals and stored at −70° C. The levels of the secreted TNF-α were measured by ELISA kits specific for the cytokine (R&D system, Minneapolis, Minn.).
To confirm the activities of Cim A in suppressing TNF-α production, Cim A was incubated with PBMac for 24 hr prior the addition of LPS at concentrations of 1 ng/mL and 10 ng/mL for 24 hr. The culture supernatants were collected and measured by ELISA for the level of secreted TNF-α.
To further compare the efficiency of Cim A with existing drugs, dexamethasone, a potent immunosuppressive corticosteroid, was used as a prototype. PBMac were treated with dexamethasone for 24 hr prior to the addition of LPS at concentrations of 1 ng/mL and 10 ng/mL for 24 hr.

5-LOX = 5-LOX inhibitor screening assay (Cayman kit); type: biochemical; details: 12.5, 25 and 50 μg/ml, linoleic acid substrate, 5 min incubation, FIG. 1A
Protocol: The 5-LOX inhibition assay was performed using Cayman's Lipoxygenase Inhibitor Screening Assay Kit (Cayman Chemical Company, Ann Arbor, Mich.) according to the manufacturer's instructions. The 5-LOX enzyme and Linoleic acid (Substrate) were added together in the presence of DMSO (Control) and Cim A at a concentration ranging from 12.5 to 50 μg/ml. After incubation for 5 min, developing agents were added. The production of hydroperoxides was measured and quantified with the use of a microplate reader at wavelength of 490 nm. The 5-LOX enzymatic activity is calculated as nmol/min/ml.
Briefly, 5-LOX inhibition assay was performed by using Cayman's lipoxygenase inhibitor screening assay kit (Cayman Chemical Company, Ann Arbor, Mich.) according to the manufacturer's instructions. The 5-LOX and linoleic acid (substrate) were added simultaneously into dimethyl sulfoxide (DMSO) (Control) or Cim A at a concentration of 12.5, 25, and 50 μg/ml, respectively. After incubation for 5 min, developing reagents for the 5-LOX inhibition assay were added. Hydroperoxide production was measured using a microplate reader at a wavelength of 490 nm. The 5-LOX enzymatic activity is calculated as nmol/min/ml.

[2] = system: leukotriene B4 (LTB4) production; assay: Leukotriene B4 production in activated human blood mononuclear cells; type: cell-based; details: 25 or 50 μg/ml for 1 hour, then calcium ionophore A23187 30 min, PBMC, FIG. 1B
Protocol: Freshly isolated human blood mononuclear cells (PBMC) (1×10^7) were pre-treated with 0.05% DMSO or Cim A (25 or 50 μg/ml) for 1 h, followed by addition of 5 μM Calcium ionophore A23187 (Sigma Aldrich, St. Louis, Mo.) for 30 min. After centrifugation for 1 min, the supernatants were collected. The level of leukotriene B4 (LTB4) was measured using LTB4 parameter assay kit (R&D Systems, Minneapolis, Minn.).
This Example investigates the effects of Cim A on LTB4 production. Briefly, freshly isolated human blood mononuclear cells (1×10^7) were pretreated with 0.05% DMSO or Cim A (25 or 50 μg/ml) for 1 hour, followed by the addition of calcium ionophore A23187 at a concentration of […] (Sigma Aldrich, St. Louis, Mo.) for 30 min. After centrifugation for 1 min, the supernatant was collected. The level of leukotriene B4 (LTB4) was measured by using a LTB4 assay kit (R&D Systems, Minneapolis, Minn.).

ERK1/2 = assay: LPS-induced phosphorylation of ERK1/2 in PBMac (Western blot); type: cell-based, human; details: 140 μM for 24 h prior to 10 ng/mL LPS for 15 min
Protocol: FIGS. 7A-7C show the effects of Cim A (B22EES1-8-3) on LPS-induced phosphorylation (phospho-) of ERK1/2 and p38 MAP kinases, and nuclear translocation of NF-KB p65. PBMac were incubated with B22EES1-8-3 (140 μM) for 24 h prior to the addition of 10 ng/mL LPS for an additional 15 min. Cytoplasmic (A, B) and nuclear (C) proteins were harvested for Western Blotting: (A) Cytoplasmic proteins: phospho-ERK1/2 and total ERK1/2. (B) Cytoplasmic proteins: phospho-p38 and total p38 kinase. (C) Nuclear proteins: upper panel, NF-κB p65 and lamin B; lower panel, the intensity of corresponding lanes in the gel photograph of NF-κB p65 was shown. […]
Whole cell lysate (20 μg) or nuclear protein (2 μg) were separated by sodium dodecyl sulfate polyacrylamide gel electrophoresis (SDS-PAGE) and transferred to nitrocellulose membranes for probing overnight with the respective antibodies specific for the phosphorylated or total form of ERK1/2 and p38 MAPK (Cell Signaling Technology, Beverly, Mass.), NF-KB p65 protein and lamin B (Santa Cruz Biotechnology, Santa Cruz, Calif.). […] In order to quantify the results from the Western blots, the gels were scanned and the intensity of the bands was analyzed by a computer program Quantity One from BioRad. […]

| Structure (SMILES) | inhibition at 1.3 µM ([1]; 1.3 μM for 24 hr prior to LPS for 24 hr) [%] | inhibition at 5.1 µM ([1]; 5.1 μM for 24 hr prior to LPS for 24 hr) [%] | 5-LOX enzymatic activity (hydroperoxide production) (5-LOX) | production of LTB4 [2] | inhibition at 140 µM ([1]; 140 μM for 24 hr prior to LPS 1 ng/mL for 24 hr) [%] | inhibition at 140 µM ([1]; 140 μM for 24 hr prior to LPS 10 ng/mL for 24 hr) [%] | LPS-induced phosphorylation of ERK1/2 (ERK1/2) |
| --- | --- | --- | --- | --- | --- | --- | --- |
| C[C@@H]1C[C@H]2[C@@H]3CCC4=CC(=O)C=C[C@]4(C)[C@@]3(F)[C@@H](O)C[C@]2(C)[C@@]1(O)C(=O)CO [dexamethasone, Dexamethasone, reference compound] | 32 ± 7.5 | 25 ± 6.3 |  |  |  |  |  |
| COc1ccc(/C=C/C(=O)OCC(=O)Cc2ccc(O)c(O)c2)cc1O [Cim A, Cimiracemate A] |  |  | potently suppressed 5-LOX activity in a dose-dependent manner | inhibits the production of LTB4 in a dose-dependent manner | 47 ± 19 | 58 ± 30 | suppressed |

Source: patent US20130324605A1, “USES OF CIMIRACEMATE A AND RELATED COMPOUNDS FOR TREATING INFLAMMATION AND MODULATING IMMUNE RESPONSES” (VERSITECH LIMITED, priority 2010, published 2013)
